# Assay results from article PMC3977580 (Biochemistry, 2014).
# Target: T1, SaMTAN (5′-methylthioadenosine/S-adenosylhomocysteine nucleosidase) (Staphylococcus aureus, UniProt Q99TQ0)
# T1 sequence (Q99TQ0 1-228): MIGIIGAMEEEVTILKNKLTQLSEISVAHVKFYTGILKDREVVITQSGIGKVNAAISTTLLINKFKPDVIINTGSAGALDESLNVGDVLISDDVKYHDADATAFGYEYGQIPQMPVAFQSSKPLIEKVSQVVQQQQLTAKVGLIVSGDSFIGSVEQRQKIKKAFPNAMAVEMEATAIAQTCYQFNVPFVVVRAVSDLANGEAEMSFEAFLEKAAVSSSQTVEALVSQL
# Test: ITC
# Type: binding
compound,measurement,value
CSC[C@H]1CN(Cc2c[nH]c3c(N)ncnc23)C[C@@H]1O [MT-DADMe-ImmA],Kd,9 nM
